According to US4012284A (Societa' Farmaceutici Italia, S.p.A., priority 1962, dated 1977):

What was measured:
Ehrlich adenocarcinoma = Ehrlich adenocarcinoma (solid) in mice (Table VI); type: in vivo, mouse; settings: controls 0/10
Acute toxicity, rat = settings: in vivo
Excerpt: In the following Table the acute toxicity of Daunomycin as LD50 is reported.

COc1cccc2c1C(=O)c1c(O)c3c(c(O)c1C2=O)C[C@@](O)(C(C)=O)C[C@@H]3O[C@H]1C[C@H](N)[C@H](O)[C@H](C)O1 [F.I. 1762]
Mortality (Ehrlich adenocarcinoma; 3 mg/kg/day): 0/10
Mortality (Ehrlich adenocarcinoma; 6 mg/kg/day): 0/10
LD50 (Acute toxicity, rat; intravenous): 13 to 15 mg/kg
LD50 (Acute toxicity, rat; ip, intraperitoneal): 8 mg/kg
